Columns and labels:
plasma triglycerides = assay: In Vivo Pharmacodynamic Assay (reduction in plasma triglycerides); conditions: Mus musculus, po, male C57BL6 mice, gavage 0.1 to 10 mg/kg with 3 mg/kg DGAT1 inhibitor, tyloxapol
Procedure: In Vivo Pharmacodynamic Assay
This assay measures the potency of compounds by measuring the reduction in plasma triglycerides in mice treated with the test compounds compared to control animals that are treated only with the vehicle solution. Male, C57BL6 mice (10-11 weeks old, each approximately 22 g in weight) are used in this assay.
Triglycerides synthesized in the liver are secreted into circulation as a component of the Very Low Density Lipoprotein (VLDL). To prevent degradation of triglycerides in circulation by the Lipoprotein Lipase (LPL), this assay uses IV injection of a detergent, tyloxapol, which inhibits activity of LPL. Since another enzyme, DGAT1, participates in the synthesis of liver triglyceride, a saturating dose of a DGAT1 inhibitor (sodium{trans-4-[4-(4-amino-7,7-dimethyl-7H-pyrimido[4,5-b][1,4]oxazin-6-yl)phenyl]cyclohexyl}acetate, IUPAC ACDLABS naming convention, see Dow et al. Bioorg. & Med. Chem., (2011) 21(20), 6122-6128) is also used in this assay. […]
Collect the blood via cardiac puncture into tube containing the anti-coagulant EDTA. […] Freeze the plasma samples on dry ice until they are to be analyzed. […] Reduction in total triglycerides in the test mice is calculated relative to the concentration of triglycerides in the control mice.

[1] = test system: LDL-c, VLDL-c and TG serum concentrations; assay: In Vivo Efficacy Model (LDL receptor-deficient mice); conditions: male LDL receptor-deficient mice, fourteen days, serum vs control group
Procedure: This assay measures the potency of compounds by measuring the reduction in low density lipoprotein cholesterol (LDL-c), very low density lipoprotein cholesterol (VLDL-c), and triglycerides (TG). Male, LDL receptor-deficient mice (29 weeks old, each approximately 30 g in weight) are used in this assay.
Feed the mice a standard mouse chow diet for two weeks prior to dosing. Prepare a test solution for oral gavage by suspend the compounds in acacia at 0.3, 1, and 3 mg/mL. Separate the mice into a test group and a control group. Thereafter at the first day of the third week dose the mice in the test group with the test solution for fourteen days, BID. Similarly dose the mice in the control group with just the vehicle without any of the test compound. Four hours after the last dose euthanized the mice with CO2. Immediately collect the blood via cardiac puncture. Isolate the serum to measure serum triglycerides as well as cholesterol in individual lipoprotein fractions. Separate the lipoprotein fractions by known HPLC methods. Determine the cholesterol concentration associated with each lipoprotein fraction by a colorimetric method (Roche Cholesterol/HP Reagent 11875540), using isolated lipoprotein fractions with known cholesterol concentration as standards. Results obtained at the highest dose, 30 mg/kg, BID, expressed as the percentage of change in comparison of the LDL-c, VLDL-c and TG serum concentrations of mice in the test group to those of mice n the control group.
To enable absorption of Example 2 at the 30 mg/kg dose, prepare that compound as 1:1 (w/w) dry mixture with hydroxypropyl methylcellulose prior to addition to acacia vehicle.

human DGAT2 [2] = molecular target: T1, human DGAT2 (Homo sapiens, UniProt Q96PD7); assay: Diacylglycerol Acyltransferase 2 (DGAT2) Biochemical Assay; parameters: FLAG (N); made in house; host or cells: insect SF9 cells; conditions: recombinant human DGAT2 (FLAG tag, SF9), 14C oleoyl-CoA, 1 hr RT; geometric mean
T1 sequence (Q96PD7 1-388): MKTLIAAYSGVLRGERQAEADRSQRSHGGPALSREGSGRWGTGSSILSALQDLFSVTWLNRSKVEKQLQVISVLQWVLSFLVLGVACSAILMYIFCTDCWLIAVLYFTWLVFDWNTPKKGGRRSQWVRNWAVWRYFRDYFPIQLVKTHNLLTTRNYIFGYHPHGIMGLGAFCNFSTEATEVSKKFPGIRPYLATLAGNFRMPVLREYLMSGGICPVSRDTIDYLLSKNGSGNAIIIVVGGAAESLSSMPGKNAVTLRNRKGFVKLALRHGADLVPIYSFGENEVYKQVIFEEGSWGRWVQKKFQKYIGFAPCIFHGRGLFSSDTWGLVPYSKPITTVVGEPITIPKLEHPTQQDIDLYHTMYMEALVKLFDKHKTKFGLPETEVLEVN
Procedure: Diacylglycerol Acyltransferase 2 (DGAT2) Biochemical Assay
The in vitro inhibitory activity of compounds against human DGAT2 is evaluated in this assay. The assay uses recombinant human DGAT2 with a FLAG tag at the amino terminus, expressed in genetically engineered insect SF9 cells, and purified through affinity chromatography.
DGAT2 catalyzes transfer of an acyl moiety from acyl-Coenzyme A onto diacylglycerol, to form triacylglycerol. In this particular embodiment of the assay oleate is used as the acyl moiety that is transferred. To facilitate miscibility of all lipid components, all lipids used in the assay contain oleyl moiety as the only acyl group. […]
Mix SUV suspensions and compound solution with other components of the assay to achieve the following concentration of individual ingredients: TrisHCl (pH 7.5, 150 mM), sucrose (250 mM), MgCl2 (5 mM), dithiothreitol (DTT) (0.5 mM), oleoyl coenzyme A (oleoyl-CoA) (12 μM), 1-^14C oleoyl coenzyme A (oleyl-CoA-^14C) (8 μM), dioleoyl glycerol (DOG) (0.6 mM), and dioleoyl phosphatidylcholine (DOPC) (1.4 mM), DGAT2 protein (0.5 nM), DMSO (1%, v/v), with test compound concentration within a 1 nM to 100 μM range, in 30 μl total volume. […] Measure the radioactivity using a Perkin-Elmer TopCount instrument. […] Calculate the degree of inhibition of DGAT2 by measuring the radioactivity at 10 different concentrations for each compound. […]

human DGAT2 [3] = molecular target: T1, human DGAT2; assay: Diacylglycerol Acyltransferase 2 (DGAT2) Cell-Based Assay (HepG2, 13C18-oleate incorporation into triolein); parameters: This assay uses human hepatoma cell-line, HepG2, as a source of acyltransferase activity; endogenous in cells; host or cells: HepG2 (human hepatoma); conditions: HepG2 cells, 13C18-oleate incorporation into triolein normalized to POPC; geometric mean
Procedure: Diacylglycerol Acyltransferase 2 (DGAT2) Cell-Based Assay
The inhibitory activity of compounds against human DGAT2 in a cell environment is evaluated in this assay. This assay uses human hepatoma cell-line, HepG2, as a source of acyltransferase activity.
HepG2 cell line is a commonly used model for metabolic reactions that occur in human hepatocytes in vivo. Synthesis of triglyceride in this cell line is followed by measuring incorporation of isotopically labeled oleate into triolein (a triglyceride with 3 oleoyl moieties).
Dispense the HepG2 cells into a 96-well microplate, which has been previously coated with Poly-D-lysine, in an amount of 50,000 cells/well in 100 μL Minimal Essential Media (MEM) with 10% Fetal Bovine Serum (FBS). Incubate the cells for 16 hr at 37° C. Replace the cell culture medium with MEM containing 2% Bovine Serum Albumin Dissolve the test compound in 0.5% DMSO and prepare serial dilutions in half-log increments. Add the serially diluted test compound into separate wells. Incubate for 0.5 hr at 37° C. Thereafter replace the cell culture medium with a medium of the same composition, but which includes 50 μM ^13C18-oleate and 300 μM hydropropyl-β-cyclodextrine. Incubate for an additional 4 hr at 37° C. Discard the cell culture medium by flipping the microplate over thereby draining the wells and then soaking up any residual media from the wells with a paper towel. […]

liver fat content = conditions: therapy with lomitapide; cited from earlier work
[4] = 30 mg/kg BID, compound as 1:1 (w/w) dry mixture with hydroxypropyl methylcellulose in acacia
[5] = 30 mg/kg BID oral gavage in acacia

Row | Compound | ED50 (plasma triglycerides) [mg/kg] | % change LDL-c [1, 4] [%] | % change Triglycerides [1, 4] [%] | % change VLDL-c [1, 4] [%] | IC50 (human DGAT2 [2]) [nM] | IC50 (human DGAT2 [3]) [nM] | % change LDL-c [1, 5] [%] | % change Triglycerides [1, 5] [%] | % change VLDL-c [1, 5] [%] | increase in the liver fat content (liver fat content) [fold]
1 | Cc1nc(CNc2ncc(Cl)cn2)cc(Oc2ccc(CS(N)(=O)=O)cc2)n1 [Example 2] | 0.27 | −55 | −72 | −82 | 120 | 150 |  |  |  | 
2 | CNS(=O)(=O)Cc1ccc(Oc2cc(CNc3ncc(Cl)cn3)nc(C)n2)cc1 [Example 1, 1-[4-[6-[[(5-Chloropyrimidin-2-yl)amino]methyl]-2-methyl-pyrimidin-4-yl]oxyphenyl]-N-methyl-methanesulfonamide] | 0.29 |  |  |  | 91 | 150 | −51 | −63 | −75 | 
3 | O=C(NC1CCN(CCCCC2(C(=O)NCC(F)(F)F)c3ccccc3-c3ccccc32)CC1)c1ccccc1-c1ccc(C(F)(F)F)cc1 [lomitapide] |  |  |  |  |  |  |  |  |  | 8
